The record followed here is patent US20260159512A1, “BCAT2 INHIBITORS” (AGIOS PHARMACEUTICALS, INC., priority 2021, published 2026).

pIC50: −log10 of the molar value. Where “and” joins values, the source holds several entries; their conditions need not be identical. Equal entries are not always repeated.

Experiment [1] concerns the target T1, BCAT2 (Homo sapiens, UniProt O15382).
T1 sequence (O15382 28-392): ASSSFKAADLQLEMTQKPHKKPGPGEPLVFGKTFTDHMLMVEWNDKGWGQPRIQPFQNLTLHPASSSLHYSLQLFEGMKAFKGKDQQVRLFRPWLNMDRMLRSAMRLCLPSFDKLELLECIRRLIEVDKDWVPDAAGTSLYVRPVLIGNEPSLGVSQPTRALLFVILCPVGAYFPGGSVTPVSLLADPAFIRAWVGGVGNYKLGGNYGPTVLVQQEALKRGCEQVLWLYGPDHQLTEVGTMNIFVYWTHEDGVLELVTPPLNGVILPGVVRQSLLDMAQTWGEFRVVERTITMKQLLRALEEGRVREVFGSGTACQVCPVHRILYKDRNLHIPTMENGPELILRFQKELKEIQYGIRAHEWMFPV
The experiment can be described thus: BCAT2 in vitro enzyme inhibition assay (resazurin/diaphorase-coupled fluorescence). In kind it is biochemical. Particulars: average where tested multiple times. On the procedure: BCAT2 In Vitro Enzyme Inhibition Assay
1.67× hBCAT2 Enzyme Mix: 0.33 μg/mL hBCAT2, 1× Buffer
2.5× Substrate Mix: 460 μM L-leucine, 420 μM α-KetoGlutarate, 10 U/mL glutamate dehydrogenase, 10 mM NAD, 30 μg/mL diaphorase, 20 μm Resazurin
BCAT2 enzyme stock solution was diluted to prepare a 1.67× hBCAT2 Enzyme Mix. 1 μL of test compound was first added to the reaction wells followed by 30 μL of 1.67× hBCAT2 Enzyme Mix and incubated at room temperature (25° C.) for one hour. Meanwhile the Substrate Mix was prepared. The reaction was initiated by the addition of 20 μL of the 2.5× Substrate Mix, bringing the final reaction mix of all components to 1×. Reactions were quenched after one hour by the addition of 25 μL of 6% SDS and reaction progress was measured via fluorescence read (Ex 540/Em 590).
Test Compound Preparation:
Test compounds were prepared at 50× final concentration in DMSO, 1 to 3 dilutions were made for 10 points. The compounds were added to the assay as a 1 to 50 dilution (1 μL in 50 μL) to yield a top assay final concentration of 100 μM, decreasing 3-fold for 10 points. Each compound dilution series test also included an assay max (1 μL DMSO Added in lieu of compound, Full Reaction Components Included) and Min (1 μL DMSO Added in lieu of compound, 30 μl of 1.67× hBCAT2 Enzyme Mix replated by 30 μL of 1× Buffer). All tests were performed in technical duplicate.
Where a compound was tested multiple times, the average value of the tests is reported.
On the technique in general: Resazurin is reduced to fluorescent resorufin, in cell work by metabolically active cells.

Experiment [2] deals with T1, BCAT2. The experiment can be described thus: BCAT2 in vitro cell inhibition using engineered A549 cells (KMV cell assay, 13C6-KMV by LC-MS/MS). The experiment is classed as cell-based. On the set-up: The result was an engineered A549 cell line that expressed endogenous BCAT2; endogenous in cells; host or cells: A549 cells with MUT and BCAT1 knocked out by CRISPR/CAS9; key to BCAT2 Cell Inhibition: A: less than or equal to 0.100 μM; B: greater than 0.100 and less than or equal to 0.500 μM; C: greater than 0.500 and less than or equal to 1.000 μM; d: greater than 1.000 μM; E: no fit. Particulars: average where tested multiple times.

As usually defined, the pIC50 is the IC50 on a negative log10 scale, so that one unit is a factor of ten. The compound `CO[C@@H]1C[C@@H](NC(=O)c2ncc(Cl)s2)C[C@@H](n2c(CC(C)(C)C)nc3cnc(-c4ccccn4)cc32)C1` (single isomer, unassigned) [Example 441] gave a negative logarithm of the IC50 (pIC50) on BCAT2 [1] of less than 6.00. Further, the “BCAT2 Cell Inhibition” value at BCAT2 [2] is reported as “E”.
At BCAT2 [1], `CO[C@@H]1C[C@@H](NC(=O)c2ncc(Cl)s2)C[C@@H](n2c(-c3ncccc3F)nc3cnc(-c4nc[nH]n4)cc32)C1` (single isomer, unassigned) [Example 443] had a pIC50 of less than 6.00. Moreover, at BCAT2 [2], the “BCAT2 Cell Inhibition” value is “E”.
Regarding `CC(C)Cc1nc2cnc(-c3cccc(F)n3)cc2n1[C@@H]1C[C@@H](O)C[C@H](NC(=O)c2ncc(Cl)s2)C1` (stereo in doubt) [Example 384, 5-chloro-N-((1R,3S,5S)-3-(6-(6-fluoropyridin-2-yl)-2-isobutyl-1H-imidazo[4,5-c]pyridin-1-yl)-5-hydroxycyclohexyl)thiazole-2-carboxamide], the pIC50 against BCAT2 [1] and against BCAT2 [2] was less than 6.00 throughout.
For `CO[C@H]1C[C@H](NC(=O)c2ccc(Cl)s2)C[C@H](n2c(-c3ccccc3F)nc3cnc(-c4nc[nH]n4)cc32)C1` (stereo in doubt) [Example 411, 5-chloro-N-((1R,3S,5S)-3-(2-(2-fluorophenyl)-6-(1H-1,2,4-triazol-3-yl)-1H-imidazo[4,5-c]pyridin-1-yl)-5-methoxycyclohexyl)thiophene-2-carboxamide], the pIC50 was 6.30 to 7.00 against BCAT2 [1] and less than 6.00 on BCAT2 [2].
`CO[C@H]1C[C@H](NC(=O)c2ncc(Cl)s2)C[C@H](n2c(CC(C)C)nc3cnc(-c4nc[nH]n4)cc32)C1` (stereo in doubt) [Example 413, 5-chloro-N-((1R,3S,5S)-3-(2-isobutyl-6-(1H-1,2,4-triazol-3-yl)-1H-imidazo[4,5-c]pyridin-1-yl)-5-methoxycyclohexyl)thiazole-2-carboxamide] showed a negative-log IC50 (pIC50) at BCAT2 [1] of less than 6.00. In addition, at BCAT2 [2], the “BCAT2 Cell Inhibition” value is on record as “E”.
`CO[C@H]1C[C@H](NC(=O)c2ncc(Cl)s2)C[C@H](n2c(-c3ccccc3F)nc3cnc(-n4cncn4)cc32)C1` (stereo in doubt) [Example 415, 5-chloro-N-((1R,3S,5S)-3-(2-(2-fluorophenyl)-6-(1H-1,2,4-triazol-1-yl)-1H-imidazo[4,5-c]pyridin-1-yl)-5-methoxycyclohexyl)thiazole-2-carboxamide] showed a pIC50 at BCAT2 [1] of less than 6.00. On BCAT2 [2], the “BCAT2 Cell Inhibition” value is recorded as “E”.
Turning to `CO[C@@H]1C[C@H](NC(=O)c2ncc(Cl)s2)C[C@H](n2c(-c3ccccc3F)nc3cnc(-c4nc[nH]n4)cc32)C1` (stereo in doubt) [Example 419, 5-chloro-N-((1R,3S,5R)-3-(2-(2-fluorophenyl)-6-(1H-1,2,4-triazol-3-yl)-1H-imidazo[4,5-c]pyridin-1-yl)-5-methoxycyclohexyl)thiazole-2-carboxamide], the pIC50 against BCAT2 [1] is not below 7.00; against BCAT2 [2], ≥ 7.00 and 6.30 to 7.00.
In the case of `CO[C@@H]1C[C@H](NC(=O)c2ncc(Cl)s2)C[C@H](n2c(CC(C)C)nc3cnc(-c4nc[nH]n4)cc32)C1` (stereo in doubt) [Example 431, 5-chloro-N-((1R,3S,5R)-3-(2-isobutyl-6-(1H-1,2,4-triazol-3-yl)-1H-imidazo[4,5-c]pyridin-1-yl)-5-methoxycyclohexyl)thiazole-2-carboxamide], the figures for the pIC50 against BCAT2 [1] and against BCAT2 [2] were 6.00 to 6.30 and less than 6.00, respectively.
As to `CO[C@@H]1C[C@@H](NC(=O)c2ncc(Cl)s2)C[C@@H](n2c(-c3ncccc3F)nc3cnc(-c4nc[nH]n4)cc32)C1` (stereo in doubt) [Example 444, 5-chloro-N-((1S,3R,5R)-3-(2-(3-fluoropyridin-2-yl)-6-(1H-1,2,4-triazol-3-yl)-1H-imidazo[4,5-c]pyridin-1-yl)-5-methoxycyclohexyl)thiazole-2-carboxamide], the pIC50 on BCAT2 [1] and on BCAT2 [2] was not below 7.00 throughout.
With `CO[C@@H]1C[C@@H](NC(=O)c2ncc(Cl)s2)C[C@@H](n2c(-c3ccccc3C#N)nc3cnc(-c4nc[nH]n4)cc32)C1` (stereo in doubt) [Example 446, 5-chloro-N-((1S,3R,5R)-3-(2-(2-cyanophenyl)-6-(1H-1,2,4-triazol-3-yl)-1H-imidazo[4,5-c]pyridin-1-yl)-5-methoxycyclohexyl)thiazole-2-carboxamide], the negative logarithm of the IC50 (pIC50) on BCAT2 [1] and at BCAT2 [2] was not below 7.00 each time.
For `Cn1ccc(-c2nc3cnc(-n4ccnn4)cc3n2[C@@H]2CCC[C@H](NC(=O)c3ncc(C(F)F)s3)C2)n1` [Example 42, 5-(difluoromethyl)-N-((1S,3R)-3-(2-(1-methyl-1H-pyrazol-3-yl)-6-(1H-1,2,3-triazol-1-yl)-1H-imidazo[4,5-c]pyridin-1-yl)cyclohexyl)thiazole-2-carboxamide], the pIC50 against BCAT2 [1] was less than 6.00. In addition, the “BCAT2 Cell Inhibition” value at BCAT2 [2] was “E”.
The corresponding values for `O=C(N[C@H]1CCC[C@@H](n2c(CN3CCCCC3)nc3cnc(-n4nccn4)cc32)C1)c1ncc(C(F)F)s1` [Example 95, 5-(difluoromethyl)-N-((1S,3R)-3-(2-(piperidin-1-ylmethyl)-6-(2H-1,2,3-triazol-2-yl)-1H-imidazo[4,5-c]pyridin-1-yl)cyclohexyl)thiazole-2-carboxamide] are less than 6.00 and “E”.
At BCAT2 [1], `CC(C)Oc1nc2cnc(-n3ccnn3)cc2n1[C@@H]1CCC[C@H](NC(=O)c2ncc(C(F)F)s2)C1` [Example 97, 5-(difluoromethyl)-N-((1S,3R)-3-(2-isopropoxy-6-(1H-1,2,3-triazol-1-yl)-1H-imidazo[4,5-c]pyridin-1-yl)cyclohexyl)thiazole-2-carboxamide] had a pIC50 of less than 6.00. At BCAT2 [2], the “BCAT2 Cell Inhibition” value is “E”.
For `O=C(O)CCc1ccccc1-c1nc2cnc(-n3nccn3)cc2n1[C@@H]1CCC[C@H](NC(=O)c2ncc(C(F)F)s2)C1` [Example 100, 3-(2-(1-((1R,3S)-3-(5-(difluoromethyl)thiazole-2-carboxamido)cyclohexyl)-6-(2H-1,2,3-triazol-2-yl)-1H-imidazo[4,5-c]pyridin-2-yl)phenyl)propanoic acid], in that order: 6.00 to 6.30 and “E”.
Regarding `O=C(N[C@@H]1CCC[C@H](n2c(-c3ccccc3F)nc3cnc(-n4nccn4)cc32)[C@H]1O)c1ncc(Cl)s1` [Example 114, 5-chloro-N-((1R,2S,3S)-3-(2-(2-fluorophenyl)-6-(2H-1,2,3-triazol-2-yl)-1H-imidazo[4,5-c]pyridin-1-yl)-2-hydroxycyclohexyl)thiazole-2-carboxamide], the pIC50 against BCAT2 [1] and on BCAT2 [2] was 6.30 to 7.00 each time.
In turn, `O=C(NN1CCCC(n2c(-c3ccccn3)nc3cnc(-n4nccn4)cc32)C1)c1ncc(C(F)F)s1` (stereo not drawn) [Example 137, 5-(difluoromethyl)-N-(3-(2-(pyridin-2-yl)-6-(2H-1,2,3-triazol-2-yl)-1H-imidazo[4,5-c]pyridin-1-yl)piperidin-1-yl)thiazole-2-carboxamide] showed a negative-log IC50 (pIC50) on BCAT2 [1] of less than 6.00. At BCAT2 [2], the “BCAT2 Cell Inhibition” value was “E”.
Compound `CC(C)(Cc1nc2cnc(-n3nccn3)cc2n1[C@@H]1CCC[C@H](NC(=O)c2ccc(Cl)s2)C1)C(=O)O` [Example 190, 3-(1-((1R,3S)-3-(5-chlorothiophene-2-carboxamido)cyclohexyl)-6-(2H-1,2,3-triazol-2-yl)-1H-imidazo[4,5-c]pyridin-2-yl)-2,2-dimethylpropanoic acid] gave a negative logarithm of the IC50 (pIC50) on BCAT2 [1] of less than 6.00. Also, the “BCAT2 Cell Inhibition” value on BCAT2 [2] is given as “E”.
`O=C(N[C@H]1CCC[C@@H](n2c(Oc3cc[nH]n3)nc3cnc(-c4nc[nH]n4)cc32)C1)c1ncc(Cl)s1` [Example 191, N-((1S,3R)-3-(2-((1H-pyrazol-3-yl)oxy)-6-(1H-1,2,4-triazol-3-yl)-1H-imidazo[4,5-c]pyridin-1-yl)cyclohexyl)-5-chlorothiazole-2-carboxamide] showed a pIC50 against BCAT2 [1] of less than 6.00. The “BCAT2 Cell Inhibition” value on BCAT2 [2] is “E”.
